Data: patent US4493843A, “Indole and indoline carboxylic acid compounds and method of use” (May & Baker Limited, priority 1980, dated 1985)
Where two headings read alike, the source gives them in different places.

Assays:
[1] = tested on: serum cholesterol and serum triglycerides; assay: Hypolipidaemic activity in rats (compound in diet, last 7 of 10 days); type: in vivo, Male Wistar rats; conditions: Rattus norvegicus, po, 168 h, 7 days; for change in vivo at 0.2 % strength: 0.2 % w/w dose in diet; for change in vivo at 0.1 % strength: 0.1 % w/w dose in diet
Outline: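 Male Wistar rats (120–150 g, groups of eight) on powdered diet for 10 days, with test compound mixed into the diet (oral) for the last 7 days. On day 10, cardiac blood was taken and serum cholesterol and triglycerides measured by autoanalyser. Percentage reductions were calculated against simultaneous untreated-diet controls for each compound concentration.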

serum glucose = assay: Hypoglycaemic activity in diabetic mice; type: in vivo, Diabetic mice (strain C 57, black, MRI derived Obese/Obese); conditions: 200 mg/kg body weight per day orally for 3 days; 3 hours after last dose
Protocol: Hypoglycaemic Activity in Diabetic Mice
Diabetic mice (strain C 57, black, MRI derived Obese/Obese) of either sex each weighting between 45 and 70 g were given the test compound orally at a dose of 200 mg/kg body weight per day for 3 days. Three hours after the last dose the animals were weighed, anaesthetised with carbon dioxide and bled by cardiac puncture.
The serum glucose levels were assessed by the glucose-oxidase method of God-Perid.
Control groups (given doses of unmedicated tragacanth mucilage) were included with each test.
The percentage reduction in the concentration of serum glucose was calculated by comparison with the simultaneous controls, for each of the test compounds used.

[2] = tested on: Smooth muscle cells from explants of pig thoracic aorta; assay: Aortic smooth muscle cell proliferation inhibiting activity; type: cell-based; conditions: Sus scrofa, 168 h, 5 μg/ml medium; six or seven day incubation; each value mean of four dishes
Protocol: Aortic smooth muscle cell proliferation inhibiting activity
Smooth muscle cells were grown in culture from explants of pig thoracic aorta, using Dulbecco's Modified Eagles (DME) Medium containing 20% foetal calf serum (FCS) and antibiotics. The cells were incubated at 37° C. in an atmosphere of 95% air and 5% carbon dioxide. At confluency the cells were routinely subcultured by trypsinising and replating at approximately one third of their confluent density in DME Medium containing 10% FCS and antibiotics.
The smooth muscle cells were plated out at densities of 100,000-200,000 cells per 35×10 mm Falcon dish in 2 ml DME Medium containing 10% FCS and antibiotics. After 24 hours, when the cells had attached to the dishes, the medium was replaced with 2 ml DME Medium containing 1% FCS and antibiotics. The cultures were incubated for a further three days to allow the cells to become quiescent (i.e. no longer undergoing cell division). The medium was then replaced by 2 ml control or test medium. The test medium consisted of DME Medium (containing 10% FCS and antibiotics) and the compound to be tested at a concentration of 5 μg/ml medium. The compounds were pre-dissolved in acetone such that the final concentration of acetone in the medium was 0.2% (v/v). The control medium consisted of DME Medium (containing 10% FCS and antibiotics) and acetone at 0.2% (v/v) concentration. After three days incubation in test or control medium, the medium was replaced with fresh test or control medium and the cells incubated for a further three or four days. At the end of the six or seven day incubation period cell numbers were determined by trypsinising the cells and counting the cell suspension in a Coulter counter.
All results in Table II hereafter represent the mean value for four dishes of cells. Percentage inhibition of proliferation was calculated using the following formula: [formula] where S=Mean cell number per dish at start of experiment (upon addition of control or test medium).
T=Mean cell number per dish in test cultures at completion of experiment.
C=Mean cell number per dish in control cultures at completion of experiment.

[3] = read-out: % change in serum cholesterol compared with control
[4] = read-out: % change in serum triglycerides compared with control

CCCCCCCCCCCC1CNc2cc(C(=O)O)ccc21 (racemic) [Compound BXX, (RS)-3-(n-undecyl)indoline-6-carboxylic acid]
change in vivo at 0.2 % strength [1, 3]: -10%
change in vivo at 0.2 % strength [1, 4]: -39%
% change in serum glucose compared with control (serum glucose): -9%

CCCCCCCCCCCc1[nH]c2ccc(C(=O)O)cc2c1C [Compound CQQ, 2-(n-undecyl)-3-methylindole-5-carboxylic acid]
% change in serum glucose compared with control (serum glucose): -40%

CCCCCCCCCCCCCCCCCCc1cc2cc(C(=O)O)ccc2[nH]1 [Compound T, 2-(n-octadecyl)indole-5-carboxylic acid]
change in vivo at 0.1 % strength [1, 3]: -45%
change in vivo at 0.1 % strength [1, 4]: -78%
change in vivo at 0.2 % strength [1, 3]: -43%
change in vivo at 0.2 % strength [1, 4]: -67%
inhibition at 5 µg/mL [2]: 30%

CCCCCCCCCCCCCCCCc1cc2ccc(C(=O)O)cc2[nH]1 [Compound TT, 2-(n-hexadecyl)indole-6-carboxylic acid]
change in vivo at 0.2 % strength [1, 3]: -8%
change in vivo at 0.2 % strength [1, 4]: -6%
inhibition at 5 µg/mL [2]: 61%
